Test results as given in patent US20240392241A1, “METHOD FOR PRODUCING CELL MASS INCLUDING PITUITARY TISSUE AND CELL MASS” (SUMITOMO CHEMICAL COMPANY, LIMITED, priority 2021, published 2024).
Ends that are not written are not given here.

B1: BMP4: BMP signal transduction pathway activating substance (protein, UniProt P12644 293-408, looked up)
Bone morphogenetic protein 4: SPKHHSQRARKKNKNCRRHSLYVDFSDVGWNDWIVAPPGYQAFYCHGDCPFPLADHLNSTNHAIVQTLVNSVNSSIPKACCVPTELSAISMLYLDEYDKVVLKNYQEMVVEGCGCR

Assays:
Assay type in all cases: cell-based
[1] = test system: cell aggregates containing pituitary tissue from human ES cells (KhES-1 strain); test: ACTH stimulation/suppression test by CRH or dexamethasone in cell aggregates containing pituitary tissue (Example 14); conditions: 24 hr, cell aggregates on day 103
Procedure: Cell aggregates containing pituitary tissue were produced in the same manner as in Example 10, and ACTH secretory capacity was studied. 20 cell aggregates with different numbers of culture days after the start of suspension culturing were transferred to a 10 cm suspension culture dish containing 10 mL of serum-free medium supplemented with 20% KSR, and after culturing for 3-4 days at 37° C., the culture supernatant was recovered. The ACTH concentration in the recovered culture supernatant was measured by the ELISA method used in clinical testing (testing outsourced to SRL, Ltd.). As a result, ACTH secretion was observed from day 29 after the start of suspension culturing (23 pg/mL), and the amount of ACTH secretion increased remarkably as the number of days of culture increased (FIG. 17A).
Then, it was studied whether an increase in ACTH secretion by CRH and suppression of ACTH secretion by glucocorticoid were observed. Specifically, 20 cell aggregates on day 103 after the start of suspension culturing were transferred to a 10 cm suspension culture dish containing 10 mL of serum-free medium supplemented with 20% KSR, and after culturing for 24 hr under conditions of 37° C., […], the culture supernatant was recovered. […] The ACTH concentration in the recovered culture supernatant was measured as described above. […]

[2] = test system: human ES cells (RAX::Venus knock-in KhES-1 strain); test: Addition period of IWP2, SB431542 and BMP4, immunostaining of PITX1, LHX3, E-cadherin on day 29 (Reference Example 2); conditions: IWP2 (2 μM) and SB431542 (1 μM) added day 0 to day 29 and BMP4 (5 nM) day 2 to day 6, vs other addition periods
Procedure: After performing step a, suspension culturing was performed in a medium containing a Wnt signal inhibitor IWP2 (2 μM) and a TGFβ signal inhibitor SB431542 (1 μM) in addition to BMP4 (5 nM) and SAG (100 nM (step (1)) or 2 μM (step (2)). IWP2 and SB431542 were added during the period from day 0 to day 6 after the start of suspension culturing (FIG. 8B-1), from day 0 to day 12 after the start of suspension culturing (FIG. 8B-2), or from day 0 to day 29 after the start of suspension culturing (FIG. 8B-3). BMP4 was added during the period from day 2 to day 6 after the start of suspension culturing (upper panel of each of FIGS. 8B-1 to -3) or from day 2 to day 18 after the start of suspension culturing (lower panel of each of FIGS. 8B-1 to -3). Using cell aggregates on day 29 after the start of suspension culturing, cryosections were prepared in the same manner as in Example 3. These cryosections were subjected to immunostaining using PITX1 (anti-Pitx1 antibody, homemade) and antibody against epithelial cell marker E-cadherin (manufactured by Takara Bio Inc.). As a result, it was confirmed that the outside of the aggregate was a nonneural epithelial tissue that was positive for PITX1 and E-cadherin, and the inside was a neural epithelial tissue that was positive for RAX::Venus (FIGS. 8B-1 to -3).
The scale bar at the bottom right of FIGS. 8B-1 to -3 indicates 200 μm.

[3] = test system: human ES cells (KhES-1 strain); test: Concentration of IWP2, BMP4 and SAG, ACTH concentration in culture medium (Reference Example 3); conditions: combination: low (IWP2 0.5 μM, BMP4 0.5 nM, SAG 700 nM) vs high (IWP2 2 μM, BMP4 5 nM, SAG 2 μM); days 61-250
Procedure: Then, for the purpose of examining the optimal concentrations of IWP2, BMP4, and SAG to be added in each step, two groups of a high concentration group (IWP2; 2 μM, BMP4; 5 nM, SAG; 2 μM) and a low concentration group (IWP2; 0.5 μM, BMP4; 0.5 nM, SAG; 700 nM) were established, and a comparative study was conducted using the ACTH concentration in the culture medium on days 61, 103, 152, 201, and 250 of differentiation induction as an indicator. Using human ES cells (KhES-1 strain) and according to step shown in FIG. 9A, a cell population including cells that constitute pituitary tissue was produced. Using the method described in Example 4, the concentration of ACTH in the medium was measured.

[4] = test system: human iPS cell line 1231A3; test: Effect of substance reducing oxidative stress on pituitary organoid production, bright field observation (Example 6); conditions: 1 mM from day 10; day 30 of differentiation induction
[5] = test system: human iPS cells (201B7 strain); test: SAG addition period and ACTH secretion capacity of cell aggregates (Example 9); conditions: stopping SAG treatment 30 days after start of differentiation induction vs continued SAG treatment
Procedure: Using human iPS cells (201B7 strain) and according to the steps shown in FIG. 12A, cell aggregates were produced. Regarding the SAG treatment period, two groups of a group in which SAG is added from immediately after the start of differentiation induction until day 30, and a group in which SAG is added from immediately after the start of differentiation induction and after day 30 (until day 61, until day 103, and until day 131) were set, and the ACTH secretion capacity was compared. ACTH was measured by a method similar to that in Example 4.

[6] = test system: human iPS cells (1231A3 strain); test: Timing of BMP4 addition under JNK inhibitor addition conditions, oblique illumination observation (Example 17); conditions: BMP4 added after 24 hr (day 1) vs about 48 hr (day 2); JNK inhibitor present; day 28
Procedure: In Example 17, a cell population containing cells constituting pituitary tissue was produced according to the steps shown in FIG. 20A. Specifically, human iPS cells (1231A3 strain, obtained from RIKEN) were cultured under feeder-free conditions according to the method described in Scientific Reports, 4, 3594 (2014). As the feeder-free medium, StemFit medium was used and, as the feeder-free scaffold, Laminin 511-E8 was used.
Differentiation induction was performed under the same conditions as in Example 1, except that the addition conditions of BMP4 and the final concentration of IWP-2 were changed to 1 μM. As a condition for adding BMP4, step (2) was performed about 24 hr (day 1) and about 48 hr (day 2) after the start of differentiation induction.
On day 28 after the start of suspension culturing, oblique illumination observation was performed using an inverted fluorescence microscope (BIOREVO BZ-X800, manufactured by Keyence Corporation) (FIG. 20B). As a result, pituitary organoid with placode-like pituitary tissue observed as a thick, highly transparent epithelium on the surface of the cell mass was formed, under both BMP4 addition conditions of about 24 hr (day 1) and about 48 hr (day 2) after the start of differentiation induction. […]

Row | Molecule | formation of PITX1-positive and E-cadherin-positive nonneural epithelial tissue [2] | ACTH concentration in the culture medium, low concentration group vs high concentration group [3] | further results
1 | C[C@@H]1C[C@H]2[C@@H]3CCC4=CC(=O)C=C[C@]4(C)[C@@]3(F)[C@@H](O)C[C@]2(C)[C@@]1(O)C(=O)CO [DX, dexamethasone] |  |  | reduction of the amount of ACTH secretion ([1]; 500 ng/mL): about 40%
2 | Cc1ccc2nc(NC(=O)CSc3nc4c(c(=O)n3-c3ccccc3)SCC4)sc2c1 [IWP2, N-(6-Methyl-2-benzothiazolyl)-2-[(3,4,6,7-tetrahydro-4-oxo-3-phenylthieno[3,2-d]pyrimidin-2-yl)thio]acetamide] | highest probability | higher | 
3 | CC(=O)N[C@@H](CS)C(=O)O [NAC, N-acetylcysteine] |  |  | cell masses smaller in diameter than in the non-addition conditions [4]: about 50 μm; proliferation of unintended cells [4]: suppressed
4 | CNC1CCC(N(Cc2cccc(-c3ccncc3)c2)C(=O)c2sc3ccccc3c2Cl)CC1 (stereo not drawn) [SAG, N-Methyl-N′-(3-pyridinylbenzyl)-N′-(3-chlorobenzo[b]thiophene-2-carbonyl)-1,4-diaminocyclohexane] |  | higher | ACTH secretion capacity [5]: improved
5 | NC(=O)c1ccc(-c2nc(-c3ccc4c(c3)OCO4)c(-c3ccccn3)[nH]2)cc1 [SB431542, 4-[4-(3,4-Methylenedioxyphenyl)-5-(2-pyridyl)-1H-imidazol-2-yl]benzamide] | highest probability |  | 
6 | CRH: CRH (manufactured by Nipro ES Pharma) used to stimulate ACTH secretion (SEEPPISLDLTFHLLREVLEMARAEQLAQQAHSNRKLMEII; ends and bridges not checked; UniProt P06850 154-194, looked up) |  |  | increase of ACTH secretion amount ([1]; 5 μg/mL): about 3 times
7 | B1 | highest probability | higher | size of the pituitary organoids formed [6]: more uniform
